Values quoted from earlier work as cited in patent US20260335281A1, “PHARMACEUTICAL COMPOSITION COMPRISING CENTANAFADINE” (OTSUKA PHARMACEUTICAL CO., LTD., priority 2022, published 2026).

Legend:
[1] = test system: serotonin (5-HT) reuptake
[2] = test system: norepinephrine (NE) reuptake
[3] = fold less than against norepinephrine reuptake, background statement

For `c1ccc2cc([C@]34CNC[C@H]3C4)ccc2c1` [(1R,5S)-1-(naphthalen-2-yl)-3-azabicyclo[3.1.0]hexane], which “effectiveness against serotonin (5-HT) reuptake, fold less” value [1, 3] is on record?
Its value is 14 fold.

And the “inhibition of serotonin reuptake” value ([1]; in words, PL 1 (JP 5184354 B))?
The value was “can inhibit the reuptake”.

What about the “effectiveness against norepinephrine (NE) reuptake” value ([2]; compared with DA and 5-HT reuptake, background statement) of the same molecule?
Its value is “most effective”.

And the “inhibition of norepinephrine reuptake” value ([2]; in words, PL 1 (JP 5184354 B))?
Its value is “can inhibit the reuptake”.

What about the “effectiveness against dopamine (DA) reuptake, fold less” value (dopamine (DA) reuptake; [3]) of the same molecule?
The value was 6 fold.

And the “inhibition of dopamine reuptake” value (dopamine (DA) reuptake; in words, PL 1 (JP 5184354 B))?
The value was “can inhibit the reuptake”.
